Assay results: US20230264009A1, “DISINFECTING CAP KIT FOR LUER ACCESS DEVICES” (SterileCare Inc., priority 2022, published 2023)

Key:
[1] = system: 48-h-old biofilms of bacterial and fungal strains; test: MBEC Assay, 24 h exposure (summary); format: cell-based; conditions: following 24 h of treatment
Procedure: A biofilm cultivation cell composition was provided. This fifth composition was created using an MBEC Assay® biofilm inoculator, consisting of a polystyrene lid with 96 downward-protruding pegs and a corresponding base used to grow biofilms. A standardized inoculum was diluted in an appropriate biofilm growth medium to achieve a viable cell count of 1.5 × 10^6 CFU/mL of bacterial cells or […] CFU/mL of fungal cells. Then, 150 µL of this inoculum was transferred into each appropriate well, and the peg lids were inserted into the microtiter plates. The plates were sealed with Parafilm and were incubated at optimum temperature for 48 h with slight rocking for bacteria and shaking at 200 rpm for fungal strains. After incubation, the peg lid was removed from the base and rinsed twice with sterile phosphate-buffered saline (PBS) for 2 min to remove loosely attached non-sessile cells. Before the antimicrobial challenge, the pegs in column 1 (n = 8) were considered the biofilm growth control; these pegs were removed from the lids, placed into 200 µL of recovery medium, and analyzed for starting biofilm cell numbers as described below. […] After the antimicrobial challenge, the pegs were rinsed twice with sterile PBS for 2 min and placed into a new 96-well plate containing 200 µL of recovery medium. The recovery plates were sealed with Parafilm, and biofilm cells were dislodged from the pegs by sonication for 30 min with a Branson 3510 bath sonicator. The biofilm cells in the recovery medium were serially diluted, and a drop dilution assay was performed to enumerate the viable cells. MBEC values were determined as the minimum concentration of antimicrobials that yielded a viable cell count at or lower than the 125 CFU/mL detection limit.

MRSA ON184 = test: MBC/MFC determination; format: cell-based, Staphylococcus aureus; conditions: alone
Procedure: (§1) An assay was made using a minimum inhibitory concentration (MIC) and minimum bactericidal concentration (MBC) and minimum fungicidal concentration (MFC) determination. The MIC was determined by the micro broth dilution method in 96-well plates. Serial two-fold dilutions of tetrasodium EDTA (from 2% to 0.015%), ethanol (from 50% to 0.1%) and chlorhexidine HCl (from 100 µg/mL to 0.025 µg/mL) were prepared in MH broth with a final volume of 90 µL per well. A 10 µL containing 1 × 10^5 bacterial cells or 2 × 10^3 fungal cells were added to each well. The inoculated plates were covered with a lid, sealed with Parafilm, and incubated for 24 h at 37° C. with slight rocking on a tilting platform shaker. After incubation, the optical density at 600 nm (OD 600 ) of the cultures in each well was measured using an xMark™ Microplate Absorbance Spectrophotometer (Bio-Rad). […] MBCs and MFCs were determined by transferring 100 µL from each well with no apparent growth onto appropriate agar plates, followed by incubation for 24 h at 37° C.

C. albicans ON47 = test: MBC/MFC determination; format: cell-based, Candida albicans; conditions: alone
Procedure: as §1

[2] = system: Candida albicans SK4b biofilm; test: FBEC index, checkerboard dilution on biofilms; format: cell-based; conditions: C. albicans SK4b biofilm
Procedure: (§2) In step (4), microtiter plates are incubated at 37° C. for 24 h. then (6), after incubation, the bacterial and fungal cells were dislodged from the pegs into the recovery medium described above.
(§3) Three 10-µL aliquots, for a total of 30 µL from each well of recovery medium, were spotted on MH agar plates and incubated for 24 h at 37° C. […] The FBEC determination is a modification of the FICI.

MRSA ON184 biofilm = test: FBEC index, checkerboard dilution on biofilms; format: cell-based, Staphylococcus aureus
Procedure: as §2, §3

[3] = tetrasodium EDTA + chlorhexidine HCl

SMILES: O=C([O-])CN(CCN(CC(=O)[O-])CC(=O)[O-])CC(=O)[O-].[Na+].[Na+].[Na+].[Na+] [EDTA, tetrasodium EDTA]
- Concentration alone able to eradicate all established biofilms [1]: 4%
- MBC/MFC (MRSA ON184): 2 % w/v
- MBC/MFC (C. albicans ON47): 1 % w/v
- FBEC (concentration in combination) [2, 3]: 0.063 % w/v
- FBEC (concentration in combination) ([2]; tetrasodium EDTA + ethanol): 0.125 % w/v
- FBEC (concentration in combination) (MRSA ON184 biofilm; [3]): 0.031 % w/v
- FBEC (concentration in combination) (MRSA ON184 biofilm; tetrasodium EDTA + ethanol): 0.063 % w/v
